Reference: patent US9708334B2, “Substituted 2,4,5,6-tetrahydropyrrolo[3,4-c]pyrazole and 4,5,6,7-tetrahydro-2H-pyrazolo[4,3-c]pyridine compounds as GlyT1 inhibitors” (DART NEUROSCIENCE (CAYMAN) LTD., priority 2014, dated 2017)

Target: T1, GlyT1 (Homo sapiens, UniProt P48067)
T1 construct: expressed in transfected cells
T1 sequence (P48067 1-706): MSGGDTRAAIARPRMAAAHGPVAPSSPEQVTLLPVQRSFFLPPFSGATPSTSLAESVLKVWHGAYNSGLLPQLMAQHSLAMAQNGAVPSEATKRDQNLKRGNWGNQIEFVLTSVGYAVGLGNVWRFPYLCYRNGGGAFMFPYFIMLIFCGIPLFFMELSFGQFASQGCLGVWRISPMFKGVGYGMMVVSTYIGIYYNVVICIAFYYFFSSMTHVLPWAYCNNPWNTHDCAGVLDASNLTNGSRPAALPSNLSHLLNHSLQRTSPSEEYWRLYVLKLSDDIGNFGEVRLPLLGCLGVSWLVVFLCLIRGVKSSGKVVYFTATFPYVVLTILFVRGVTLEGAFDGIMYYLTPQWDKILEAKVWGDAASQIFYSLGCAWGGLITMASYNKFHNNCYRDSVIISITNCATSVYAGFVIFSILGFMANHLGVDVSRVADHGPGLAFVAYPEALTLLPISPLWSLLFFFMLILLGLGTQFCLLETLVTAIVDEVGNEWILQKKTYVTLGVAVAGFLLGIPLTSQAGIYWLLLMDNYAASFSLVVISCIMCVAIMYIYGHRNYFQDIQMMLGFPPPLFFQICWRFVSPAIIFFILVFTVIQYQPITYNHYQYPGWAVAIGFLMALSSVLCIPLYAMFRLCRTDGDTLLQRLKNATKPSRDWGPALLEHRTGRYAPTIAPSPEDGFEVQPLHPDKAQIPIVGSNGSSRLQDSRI
Experiment: Glycine Transporter 1 (GlyT1) uptake assay, scintillation proximity assay of [14C]-glycine uptake
Format: cell-based
Settings: SPA, four parameter logistic fit, read-out: GlyT1 (pIC50) (converted)
Method in brief: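 IC50 values derive from four-parameter logistic curves fitted to dose-response data. Uptake of [14C]-glycine measured in scintillation proximity format.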

N#Cc1ccc(N2CCOCC2)c(C(=O)N2CCc3nn(-c4ccccc4)cc3C2)c1Cl [Example 505, 2-Chloro-4-(morpholin-4-yl)-3-{2-phenyl-2H 4H 5H 6H 7H-pyrazolo[4,3-c]pyridine-5-carbonyl}benzonitrile]
IC50: 1000 to 10000 nM

CC1(COc2ccc(C#N)c(Cl)c2C(=O)N2CCc3nn(-c4ccccc4)cc3C2)COC1 [Example 506, 2-Chloro-4-[(3-methyloxetan-3-yl)methoxy]-3-{2-phenyl-2H 4H 5H 6H 7H-pyrazolo[4,3-c]pyridine-5-carbonyl}benzonitrile]
IC50: 1000 to 10000 nM

CC1(COc2ccc(C#N)c(Cl)c2C(=O)N2CCc3nn(-c4ccccc4)cc3C2)CC1 [Example 507, 2-Chloro-4-[(1-methylcyclopropyl)methoxy]-3-{2-phenyl-2H 4H 5H 6H 7H-pyrazolo[4,3-c]pyridine-5-carbonyl}benzonitrile]
IC50: 100 to 1000 nM

CC1(COc2ccc(C#N)c(Cl)c2C(=O)N2CCc3nn(-c4ccc(F)cc4)cc3C2)CC1 [Example 508, 2-Chloro-3-[2-(4-fluorophenyl)-2H 4H 5H 6H 7H-pyrazolo[4,3-c]pyridine-5-carbonyl]-4-[(1-methylcyclopropyl)methoxy]benzonitrile]
IC50: 100 to 1000 nM

N#Cc1ccc(OCC2(C(F)(F)F)CC2)c(C(=O)N2CCc3nn(-c4ccc(F)cc4)cc3C2)c1Cl [Example 509, 2-Chloro-3-[2-(4-fluorophenyl)-2H 4H 5H 6H 7H-pyrazolo[4,3-c]pyridine-5-carbonyl]-4-{[1-(trifluoromethyl)cyclopropyl]methoxy}benzonitrile]
IC50: 100 to 1000 nM

COc1c(C#N)ccc(N2CCC(F)(F)CC2)c1C(=O)N1Cc2cn(-c3ccc(F)cc3)nc2C1 [Example 510, 4-(4 4-Difluoropiperidin-1-yl)-3-[2-(4-fluorophenyl)-2H 4H 5H 6H-pyrrolo[3,4-c]pyrazole-5-carbonyl]-2-methoxybenzonitrile]
IC50: < 100 nM

COc1c(C#N)ccc(OCC(C)(C)C)c1C(=O)N1Cc2cn(-c3ccc(F)cc3)nc2C1 [Example 511]
IC50: < 100 nM

COc1c(C#N)ccc(OCC2(C)CC2)c1C(=O)N1Cc2cn(-c3ccc(F)cc3)nc2C1 [Example 512, 3-[2-(4-Fluorophenyl)-2H 4H 5H 6H-pyrrolo[3,4-c]pyrazole-5-carbonyl]-2-methoxy-4-[(1-methylcyclopropyl)methoxy]benzonitrile]
IC50: < 100 nM

COc1c(C#N)ccc(OC2CCCC2)c1C(=O)N1Cc2cn(-c3ccc(F)cc3)nc2C1 [Example 513, 4-(Cyclopentyloxy)-3-[2-(4-fluorophenyl)-2H 4H 5H 6H-pyrrolo[3,4-c]pyrazole-5-carbonyl]-2-methoxybenzonitrile]
IC50: < 100 nM

COc1c(C#N)ccc(N2CCC(F)(F)C2)c1C(=O)N1Cc2cn(-c3ccc(F)cc3)nc2C1 [Example 514, 4-(3 3-Difluoropyrrolidin-1-yl)-3-[2-(4-fluorophenyl)-2H 4H 5H 6H-pyrrolo[3,4-c]pyrazole-5-carbonyl]-2-methoxybenzonitrile]
IC50: < 100 nM

COc1c(C#N)ccc(OC(C)C)c1C(=O)N1Cc2cn(-c3ccc(F)cc3)nc2C1 [Example 515, 3-[2-(4-Fluorophenyl)-2H 4H 5H 6H-pyrrolo[3,4-c]pyrazole-5-carbonyl]-2-methoxy-4-(propan-2-yloxy)benzonitrile]
IC50: < 100 nM

COc1c(C#N)ccc(OC(C)(C)C(F)(F)F)c1C(=O)N1Cc2cn(-c3ccc(F)cc3)nc2C1 [Example 516, 3-[2-(4-Fluorophenyl)-2H 4H 5H 6H-pyrrolo[3,4-c]pyrazole-5-carbonyl]-2-methoxy-4-[(1 1 1-trifluoro-2-methylpropan-2-yl)oxy]benzonitrile]
IC50: < 100 nM

COc1c(C#N)ccc(OC(C)CF)c1C(=O)N1Cc2cn(-c3ccc(F)cc3)nc2C1 (stereo not drawn) [Example 517, 3-[2-(4-Fluorophenyl)-2H 4H 5H 6H-pyrrolo[3,4-c]pyrazole-5-carbonyl]-4-[(1-fluoropropan-2-yl)oxy]-2-methoxybenzonitrile]
IC50: < 100 nM

CCC(CC)Oc1ccc(C#N)c(OC)c1C(=O)N1Cc2cn(-c3ccc(F)cc3)nc2C1 [Example 518, 3-[2-(4-Fluorophenyl)-2H 4H 5H 6H-pyrrolo[3,4-c]pyrazole-5-carbonyl]-2-methoxy-4-(pentan-3-yloxy)benzonitrile]
IC50: < 100 nM

COc1c(C#N)ccc(OC2COC2)c1C(=O)N1Cc2cn(-c3ccc(F)cc3)nc2C1 [Example 519, 3-[2-(4-Fluorophenyl)-2H 4H 5H 6H-pyrrolo[3,4-c]pyrazole-5-carbonyl]-2-methoxy-4-(oxetan-3-yloxy)benzonitrile]
IC50: < 100 nM

COc1c(C#N)ccc(OCC(F)F)c1C(=O)N1Cc2cn(-c3ccc(F)cc3)nc2C1 [Example 520, 4-(2 2-Difluoroethoxy)-3-[2-(4-fluorophenyl)-2H 4H 5H 6H-pyrrolo[3,4-c]pyrazole-5-carbonyl]-2-methoxybenzonitrile]
IC50: < 100 nM

CCCC(C)Oc1ccc(C#N)c(OC)c1C(=O)N1Cc2cn(-c3ccc(F)cc3)nc2C1 (stereo not drawn) [Example 521, 3-[2-(4-Fluorophenyl)-2H 4H 5H 6H-pyrrolo[3,4-c]pyrazole-5-carbonyl]-2-methoxy-4-(pentan-2-yloxy)benzonitrile]
IC50: 100 to 1000 nM

COc1c(C#N)ccc(OCC(C)C)c1C(=O)N1Cc2cn(-c3ccc(F)cc3)nc2C1 [Example 522, 3-[2-(4-Fluorophenyl)-2H 4H 5H 6H-pyrrolo[3,4-c]pyrazole-5-carbonyl]-2-methoxy-4-(2-methylpropoxy)benzonitrile]
IC50: < 100 nM

COc1c(C#N)ccc(OC(C)C(C)C)c1C(=O)N1Cc2cn(-c3ccc(F)cc3)nc2C1 (stereo not drawn) [Example 523, 3-[2-(4-Fluorophenyl)-2H 4H 5H 6H-pyrrolo[3,4-c]pyrazole-5-carbonyl]-2-methoxy-4-[(3-methylbutan-2-yl)oxy]benzonitrile]
IC50: < 100 nM

COc1c(C#N)ccc(OC(C)C2CC2)c1C(=O)N1Cc2cn(-c3ccc(F)cc3)nc2C1 (stereo not drawn) [Example 524, 4-(1-Cyclopropylethoxy)-3-[2-(4-fluorophenyl)-2H 4H 5H 6H-pyrrolo[3,4-c]pyrazole-5-carbonyl]-2-methoxybenzonitrile]
IC50: < 100 nM

COc1c(C#N)ccc(OC2(C)CC2)c1C(=O)N1Cc2cn(-c3ccc(F)cc3)nc2C1 [Example 525, 3-[2-(4-Fluorophenyl)-2H 4H 5H 6H-pyrrolo[3,4-c]pyrazole-5-carbonyl]-2-methoxy-4-(1-methylcyclopropoxy)benzonitrile]
IC50: < 100 nM

CC(C)(C)COc1ccc(C#N)cc1C(=O)N1Cc2cn(-c3ccc(F)cc3)nc2C1 [Example 526, 4-(2 2-Dimethylpropoxy)-3-[2-(4-fluorophenyl)-2H 4H 5H 6H-pyrrolo[3,4-c]pyrazole-5-carbonyl]benzonitrile]
IC50: < 100 nM

N#Cc1ccc(OCC(F)F)c(C(=O)N2Cc3cn(-c4ccc(F)cc4)nc3C2)c1 [Example 527, 4-(2 2-Difluoroethoxy)-3-[2-(4-fluorophenyl)-2H 4H 5H 6H-pyrrolo[3,4-c]pyrazole-5-carbonyl]benzonitrile]
IC50: 1000 to 10000 nM

N#Cc1ccc(OCC(F)(F)F)c(C(=O)N2Cc3cn(-c4ccc(F)cc4)nc3C2)c1 [Example 528, 3-[2-(4-Fluorophenyl)-2H 4H 5H 6H-pyrrolo[3,4-c]pyrazole-5-carbonyl]-4-(2 2 2-trifluoroethoxy)benzonitrile]
IC50: 100 to 1000 nM

CC(C)Oc1ccc(C#N)cc1C(=O)N1Cc2cn(-c3ccc(F)cc3)nc2C1 [Example 529, 3-[2-(4-Fluorophenyl)-2H 4H 5H 6H-pyrrolo[3,4-c]pyrazole-5-carbonyl]-4-(propan-2-yloxy)benzonitrile]
IC50: 100 to 1000 nM

C[C@H](Oc1ccc(C#N)cc1C(=O)N1Cc2cn(-c3ccc(F)cc3)nc2C1)C(F)(F)F [Example 530, 3-[2-(4-Fluorophenyl)-2H 4H 5H 6H-pyrrolo[3,4-c]pyrazole-5-carbonyl]-4-{[(2S)-1 1 1-trifluoropropan-2-yl]oxy}benzonitrile]
IC50: 100 to 1000 nM

N#Cc1ccc(OCC2CC2)c(C(=O)N2Cc3cn(-c4ccc(F)cc4)nc3C2)c1 [Example 531, 4-(Cyclopropylmethoxy)-3-[2-(4-fluorophenyl)-2H 4H 5H 6H-pyrrolo[3,4-c]pyrazole-5-carbonyl]benzonitrile]
IC50: 100 to 1000 nM

CC(C)(Oc1ccc(C#N)cc1C(=O)N1Cc2cn(-c3ccc(F)cc3)nc2C1)C(F)(F)F [Example 532, 3-[2-(4-Fluorophenyl)-2H 4H 5H 6H-pyrrolo[3,4-c]pyrazole-5-carbonyl]-4-[(1 1 1-trifluoro-2-methylpropan-2-yl)oxy]benzonitrile]
IC50: 100 to 1000 nM

COc1c(C#N)ccc(OCC(F)(F)F)c1C(=O)N1Cc2cn(-c3ccc(F)c(C)n3)nc2C1 [Example 533, 3-[2-(5-Fluoro-6-methylpyridin-2-yl)-2H 4H 5H 6H-pyrrolo[3,4-c]pyrazole-5-carbonyl]-2-methoxy-4-(2 2 2-trifluoroethoxy)benzonitrile]
IC50: < 100 nM

COc1c(C#N)ccc(OCC(F)F)c1C(=O)N1Cc2cn(-c3ccc(F)c(C)n3)nc2C1 [Example 534, 4-(2 2-Difluoroethoxy)-3-[2-(5-fluoro-6-methylpyridin-2-yl)-2H 4H 5H 6H-pyrrolo[3,4-c]pyrazole-5-carbonyl]-2-methoxybenzonitrile]
IC50: 100 to 1000 nM
